Laboratory results: patent publication US5491166A, “Inhibitors of HIV protease useful for the treatment of AIDS” (Eli Lilly and Company, priority 1992, dated 1996)

Biological target: T1, HIV-1 protease (Human immunodeficiency virus type 1 group M subtype B, UniProt P04585)
T1 construct: Purified HIV-1 protease was obtained as described above; made in house; host or cells: E. coli K12 L507/pHP10D
Assay: biochemical
Conditions: for Fluorescence Assay IC50: All values normalized to a positive control, 1 h pre-incubation, 16 h with substrate at room temperature, *concentration of the compound was not increased above the reported concentration; for IC50: read-out: Fluorescence Assay IC50 (converted)
Experimental: A culture of E. coli K12 L507/pHP10D was grown to mid-log phase at 32° C. in LB media containing 12.5 μg/ml tetracycline. The cultivation temperature was quickly elevated to 40° C. to induce gene expression, and the cells were allowed to grow for 2.5 hours at this temperature before the culture was quickly chilled on ice. The cells were centrifuged and the cell pellet was resuspended in 20 mL 50 mmol MES buffer (pH 6.0) containing 1 mmol EDTA, 1 mmol DTT, 1 mmol PMSF and 10% glycerol ("Buffer A"). Cells were lysed by sonication using a Fischer Model 300 Dismembrator and a microtip probe. Following centrifugation at 27,000×g, the supernatant was diluted to a total volume of 60 mL with Buffer A and loaded onto a 2.0×19 cm QAE-Sepharose column (1 mL/min, 4° C.), that had been equilibrated in Buffer A. The column was washed isocratically for 180 min and then eluted with a gradient eluent of 0-1.0M sodium chloride in Buffer A over 120 min. Enzymatic activity was measured by HPLC using the synthetic peptide SQNYPIV as described in Margolin et al., Biochem, Biophys. Res. Commun., 167, 554-560 (1990); the production of the p1 peptide (SQNY) was measured.
The active fractions were combined, made 1.2M in ammonium sulfate, and applied to a 2.0×18 cm hexyl agarose column that had been equilibrated in Buffer A containing 1.2M ammonium sulfate. The sample was loaded at a flow rate of 1 mL/min at 4° C., washed with the equilibration buffer for 240 min (1 mL/min) and then eluted using a reverse linear gradient of 1.2-0M ammonium sulfate in Buffer A for 120 min at the same flow rate. The column was then washed isocratically in Buffer A for 120 min.
The active fractions were combined, concentrated to 10 mL using an Amicon stirred cell with a YM-10 membrane and then applied to a MonoS cation exchange column (1.0×10 cm) that had been equilibrated in Buffer A. The sample was loaded at a flow rate of 1 mL/min at 25° C. After washing isocratically for 30 min, the protease was eluted using a linear gradient of 0-0.45M sodium chloride in Buffer A over 40 min.. The column was washed isocratically in Buffer A containing 0.45M sodium chloride for 30 min.
The active fractions were combined and concentrated to 200 μL using an Amicon stirred cell and a YM-10 membrane and then the protease was applied to a Superose 6 size exclusion column equilibrated in Buffer A containing 0.1M sodium chloride.
The purified peptide was labeled with a fluorescent marker at the C-terminal end for use in the Pandex assay. N^α -Biotin-[…]OH (1.206 g, 0.936 mmol) was dissolved in 100 mL of 0.1M sodium borate, pH 9.5. Then, a solution of 3 g (7.7 mmol) of fluorescein isothiocyanate in 15 mL dimethyl sulfoxide was added to the reaction mixture in 10 equal portions over two hours. The resulting mixture was allowed to react for one hour after the final addition. The solution was adjusted to pH 3 using 5N HCl, resulting in the formation of a precipitate which was removed by centrifugation.
The following buffers and solutions are used in the Fluorescence HIV-1 Protease Inhibitor Assay:
0.05M 4-morpholineethane sulfonic acid, pH 5.5
0.1% solution of Fluoricon Avidin Assay Particles (Avidin conjugated to solid polystyrene beads, 0.6-0.8 microns in diameter in TBSA Buffer
27 IU/mL of purified HIV-1 protease in MES-ALB buffer (1 IU equals the amount of enzyme required to hydrolyze 1 μmole of substrate per minute at 37° C.
To each well of a round bottom, 96-well plate is added 20 μL of the Enzyme Solution followed by 10 μL of the compound to be evaluated in a 20% aqueous dimethylsulfoxide solution. Purified HIV-1 protease was obtained as described above.

Compound | IC50 [nM] | further results
CC(C)(C)NC(=O)c1ccccc1C[C@@H](O)[C@H](Cc1ccccc1)NC(=O)[C@@H](CC(=O)OCc1ccccc1)NC(=O)OCc1ccccc1 (relative stereo) [Example 9, [2R-(2R *, 3S*, 6R*)]-N-t-Butyl-2-[2-hydroxy-3-phenylmethyl-4-aza-5-oxo-6-N(benzyloxycarbonyl)amino-7-benzyloxycarbonyl]heptyl benzamide] |  | Fluorescence Assay IC50: > 1 µg/mL
CC(C)(C)NC(=O)c1ccccc1C[C@@H](O)[C@H](Cc1ccccc1)NC(=O)[C@@H](CC(=O)OCc1ccccc1)NC(=O)OC(C)(C)C [Example 11, [2R-(2R *, 3S*, 6S*)]-N-t-butyl-2-[2-hydroxy-3-phenylmethyl-4-aza-5-oxo-6-N(t-butoxycarbonyl)amino-7-benzyloxycarbonyl]heptyl benzamide] |  | IC8 (read-out: Fluorescence Assay IC8): 1 µg/mL
CC(C)(C)NC(=O)c1ccccc1C[C@@H](O)[C@H](Cc1ccccc1)NC(=O)[C@H](CC#N)NC(=O)NCc1cccc2ccccc12 (relative stereo) [Example 1, [2R-(2R*, 3S*, 6S*)]-N-t-Butyl-2-[2-hydroxy-3-phenylmethyl-4,7,9-triaza-5,8-dioxo-6-cyanomethyl-10-naphth-1-yl]decyl benzamide] | 0.645 | 
CC(C)(C)NC(=O)c1ccccc1C[C@@H](O)[C@H](Cc1ccccc1)NC(=O)[C@H](CC(=O)NN)NC(=O)c1ccc2ccccc2n1 [Example 13, [2R-(2R*, 3S*, 6S*)]-N-t-Butyl-2-[2-hydroxy-3-phenylmethyl-4-aza-5,8-dioxo-6-N(quinolin-2-ylcarbonyl)amino-8-hydrazino]octyl benzamide] | 1.12 | 
CC(C)(C)NC(=O)c1ccccc1C[C@@H](O)[C@H](Cc1ccccc1)NC(=O)[C@H](CC(=O)OCc1ccccn1)NC(=O)c1ccc2ccccc2n1 [Example 10, [2R-(2R*,3S*,6S*)]-N-t-Butyl-2-[2-hydroxy-3-phenylmethyl-4-aza-5-oxo-6-N(quinolin-2-ylcarbonyl)amino-7-(pyrid-2-ylmethoxycarbonyl)]heptyl benzamide] | 1.85 | 
CC(C)(C)NC(=O)c1ccccc1C[C@@H](O)[C@H](Cc1ccccc1)NC(=O)[C@@H](CC(=O)OCc1ccccc1)NC(=O)c1ccc2ccccc2n1 [Example 8, [2R-(2R*,3S*,6R*)]-N-t-Butyl-2-[2-hydroxy-3-phenylmethyl-4-aza-5-oxo-6-N(quinolin-2-ylcarbonyl)amino-7-benzyloxycarbonyl]heptyl benzamide] | > 1430 | 
CC(C)(C)NC(=O)c1ccccc1C[C@@H](O)[C@H](Cc1ccccc1)NC(=O)[C@H](CS(N)(=O)=O)NC(=O)c1ccc2ccccc2n1 [Example 14, [2R-(2R*,3S*,6R*)]-N-t-Butyl-2-[2-hydroxy-3-phenylmethyl-4-aza-5-oxo-6-N(quinolin-2-ylcarbonyl)amino-7-aminosulfonyl]heptyl benzamide] | 4.18 | 
CN(C)CCNC(=O)C[C@H](NC(=O)c1ccc2ccccc2n1)C(=O)N[C@@H](Cc1ccccc1)[C@H](O)Cc1ccccc1C(=O)NC(C)(C)C (relative stereo) [Example 15, [2R -(2R*,3S*,6S*)]-N-t-Butyl-2-[2-hydroxy-3-phenylmethyl-4-aza-5,8-dioxo-6-N(quinolin-2-ylcarbonyl)amino-8-N(2-(N, N-dimethylamino)ethyl)amino]octyl benzamide] | 2.79 | 
[2R-(2R*, 3S*, 6S*)]-N-t-Butyl-2-[2-hydroxy-3-phenylmethyl-4,7-diaza-5,8-dioxo-6-cyanomethyl-9-N(methyl)aza-10-quinolin-2-yl]decyl benzamide [Example 4] |  | Fluorescence Assay IC50: 0.0012 µg/mL

More lines, main results first:

IC50 [nM] | Compound | further results
0.782 | CONC(=O)C[C@H](NC(=O)c1ccc2ccccc2n1)C(=O)N[C@@H](Cc1ccccc1)[C@H](O)Cc1ccccc1C(=O)NC(C)(C)C [Example 12, [2R-(2R*, 3S*, 6S*)]-N-t-Butyl-2-[2-hydroxy-3-phenylmethyl-4-aza-5-oxo-6-N(quinolin-2-ylcarbonyl)amino-8-N(methoxy)carbamoyl]heptyl benzamide] | 
89.5 | CN1Cc2ccccc2CC1C(=O)N[C@@H](CC#N)C(=O)N[C@@H](Cc1ccccc1)[C@H](O)Cc1ccccc1C(=O)NC(C)(C)C (relative stereo) [Example 3, R-(2R *, 3S*, 6S*)-N-t-Butyl-2-[2-hydroxy-3-phenylmethyl-4,7-diaza-5,8-dioxo-6-cyanomethyl-8-(2-methyl-1,2,3,4-tetrahydroisoquinolin-3-yl]octylbenzamide] | 
0.856 | CC(C)(C)NC(=O)c1ccccc1C[C@@H](O)[C@H](Cc1ccccc1)NC(=O)[C@H](CC(=O)OCc1ccccc1)NC(=O)c1ccc2ccccc2n1 [Example 7, [2R-(2R*,3S*,6S*)]-N-t-Butyl-2-[2-hydroxy-3-phenylmethyl-4-aza-5-oxo-6-N(quinolin-2-ylcarbonyl)amino-7-benzyloxycarbony]heptyl benzamide] | 
10.6 | CC(C)(C)NC(=O)c1ccccc1C[C@@H](O)[C@H](Cc1ccccc1)NC(=O)[C@H](CC(=O)OCc1ccccc1)NC(=O)OCc1ccccc1 [Example 6, [2R-(2R*, 3S*, 6S*)]-N-t-Butyl-2-[2-hydroxy-3-phenylmethyl-4-aza-5-oxo-6-N(benzyloxycarbonyl)amino-7-benzyloxycarbonyl]heptyl benzamide] | 
1.86 | CC(C)(C)NC(=O)c1ccccc1C[C@@H](O)[C@H](Cc1ccccc1)NC(=O)[C@H](CC#N)NC(=O)c1ccc2ccccc2n1 [Example 2, [2R-(2R *, 3S*, 6S*)]-N-t-Butyl-2-[2-hydroxy-3-phenylmethyl-4,7-diaza-5,8-dioxo-6-cyanomethyl-8-quinolin-2-yl]octyl benzamide] | 
